Assay results published in patent US20110027192A1, “SLIM-FIT FAT BURNING WATER” (priority 2008, published 2011).

Columns and labels:
adults = details: 1200 mg for a 60 kg person, 1993 GRAS expert committee; cited from earlier work
[1] = Solubility of L-carnitine in water (100-2000 mg per 16 oz); assay type: physicochemical; details: about 100 mg to about 2000 mg per 16 fluid ounces of water
Experimental: A pre-measured amount of L-carnitine was added into water at a final concentration range from about 100 mg to about 2000 mg per 16 fluid ounces (oz) of water.

cells (mitochondria) = details: cited from earlier work
[2] = test system: long chain fatty acid oxidation; details: oral supplementation, healthy subjects; cited from earlier work
[3] = test system: long chain fatty acid oxidation; details: oral supplementation, slightly overweight adults; cited from earlier work

Row | Structure (SMILES) | amount that can be safely ingested by adults (adults) | solubility in the water [1] | rate at which cells (mitochondria) burned fat (cells (mitochondria)) | long chain fatty acid oxidation as measured by 13CO2 exhalation [2] | long chain fatty acid oxidation [3]
1 | C[N+](C)(C)C[C@H](O)CC(=O)[O-].O=C([O-])CC(O)(CC(=O)[O-])C(=O)[O-].O=C([O-])CC(O)(CC(=O)[O-])C(=O)[O-].[Mg+2].[Mg+2].[Mg+2] [L-Carnitine Magnesium Citrate] | 20 mg/kg/day | – | – | – | –
2 | C[N+](C)(C)C[C@H](O)CC(=O)[O-] [L-carnitine] | 20 mg/kg/day | completely soluble | increased the rate | improved long chain fatty acid oxidation | –
3 | C[N+](C)(C)C[C@H](O)CC(=O)[O-].O=C(O)C(O)C(O)C(=O)O [L-Carnitine L-Tartrate] | 20 mg/kg/day | – | – | – | increased long chain fatty acid oxidation
